Data taken from US7135470B2, “Thienopyridazines as IKK inhibitors” (Roche Palo Alto LLC, priority 2004, dated 2006).

Biological target: T1, purified recombinant human IKKb (Homo sapiens, UniProt O14920)
T1 sequence (O14920 1-756): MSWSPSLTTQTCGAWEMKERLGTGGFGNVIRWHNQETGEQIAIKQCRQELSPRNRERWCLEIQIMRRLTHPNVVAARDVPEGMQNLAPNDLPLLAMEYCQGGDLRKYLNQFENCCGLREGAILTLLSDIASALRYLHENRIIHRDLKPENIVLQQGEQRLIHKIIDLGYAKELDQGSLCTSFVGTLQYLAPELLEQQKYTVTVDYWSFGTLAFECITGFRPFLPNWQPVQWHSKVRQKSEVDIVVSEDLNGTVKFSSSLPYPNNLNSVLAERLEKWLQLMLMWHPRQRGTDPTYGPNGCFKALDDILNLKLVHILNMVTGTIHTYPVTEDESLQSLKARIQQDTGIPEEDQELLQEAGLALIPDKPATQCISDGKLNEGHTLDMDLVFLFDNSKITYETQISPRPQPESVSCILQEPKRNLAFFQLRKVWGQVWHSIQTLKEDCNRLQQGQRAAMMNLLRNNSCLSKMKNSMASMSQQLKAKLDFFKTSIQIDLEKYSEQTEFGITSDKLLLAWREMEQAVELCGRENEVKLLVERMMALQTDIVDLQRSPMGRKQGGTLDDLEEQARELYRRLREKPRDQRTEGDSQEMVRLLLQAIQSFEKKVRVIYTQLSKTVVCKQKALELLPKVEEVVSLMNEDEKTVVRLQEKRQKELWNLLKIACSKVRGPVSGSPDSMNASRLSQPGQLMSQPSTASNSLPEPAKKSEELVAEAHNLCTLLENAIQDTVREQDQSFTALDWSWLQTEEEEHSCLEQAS
Assay: IKKb kinase assay, incorporation of radiolabeled 33P gATP into Biotin-peptide substrate derived from IkB-alpha
Type: biochemical
Settings: recombinant human IKKb 25 nM, ATP 10 μM, peptide substrate 30 μM, 30 minutes at 30° C.
Method: This example describes an assay that is useful in evaluating and selecting a compound that modulates IKK. The assay measures the incorporation of radiolabeled ^33P gATP into the Biotin-peptide kinase substrate, derived from the IkB-alpha sequence.
In a 40 ul volume, 26 ul of ADB diluted, purified recombinant human IKKb [25 nM] was mixed with 4 ul 10× concentration of test compounds, [usually 100 uM–0.003 uM], [10%] DMSO and incubated for 10 minutes at room temperature. The kinase reaction was initiated by the addition of 10 ul 4× substrate cocktail containing the peptide substrate [0 or 30 μM] ATP [10 μM], and ^33PgATP [2uCi/rxn]. After 30 minutes of incubation at 30° C., the reaction was terminated by the transfer of 25 ul reaction sample to a phosphocellulose membrane/plate containing 150 ul 0.75% phosphoric acid.
On the following day, the free radionucleotides in the phosphocellulose membrane were washed under vacuum with 3×200 ul of 0.75% phosphoric acid. After the last wash membrane/plates were transferred to an adoptor plate and 70 ul of scintillation cocktail was added to each well. After four hours, the amount of radioactivity for each well was counted in a top counter.

NC(=O)c1nnc(N)c2cc(-c3ccc(F)cc3)sc12 [Compound 3, 4-Amino-2-(4-fluoro-phenyl)-thieno[2,3-d]pyridazine-7-carboxylic acid amide]
IC50: < 1000 nM
